Measurements taken from publication PMC3914206.

Experiments:
Type in all cases: binding
Set-up in all cases: KINOMEscan: ABL1(F317L)-phosphorylated / KINOMEscan: ABL1(H396P)-nonphosphorylated / KINOMEscan: ABL1(H396P)-phosphorylated / KINOMEscan: ABL1(M351T)-phosphorylated / KINOMEscan: ABL1(T315I)-phosphorylated / KINOMEscan: ABL1-nonphosphorylated / KINOMEscan: ABL1-phosphorylated / KINOMEscan: ACVR2A / KINOMEscan: ACVR2B / KINOMEscan: ADCK3 / KINOMEscan: ADCK4 / KINOMEscan: AKT1 / KINOMEscan: AKT3 / KINOMEscan: ALK / KINOMEscan: ARK5 / KINOMEscan: AURKA / KINOMEscan: AURKC / KINOMEscan: BIKE / KINOMEscan: BMPR1A / KINOMEscan: BMPR1B / KINOMEscan: BMX / KINOMEscan: BRK / KINOMEscan: BRSK1 / KINOMEscan: BRSK2 / KINOMEscan: CAMK1 / KINOMEscan: CAMK1D / KINOMEscan: CAMK1G / KINOMEscan: CAMK2A / KINOMEscan: CAMK2B / KINOMEscan: AAK1 / KINOMEscan: CAMK2D / KINOMEscan: CAMK2G / KINOMEscan: ABL1(F317I)-nonphosphorylated / KINOMEscan: ABL1(F317I)-phosphorylated / KINOMEscan: ABL1(F317L)-nonphosphorylated: unit: % Ctrl
panel of 442 kinases [1] = biological target: T1, panel of 442 kinases (Homo sapiens, UniProt Q52WX2); details: kinase SBK1; compound concentration 10 µM
T1 construct: purchased KINOMEscan
Description: (§1) We assessed the selectivity of members of this scaffold using the KINOMEscan methodology across a near comprehensive panel of 442 kinases [[18,27]].

panel of 442 kinases [2] = biological target: T2, panel of 442 kinases (Homo sapiens, UniProt Q96NX5); details: Compound Concentration 10 µM
T2 construct: purchased KINOMEscan
Description: as §1

panel of 442 kinases [3] = biological target: T3, panel of 442 kinases (Homo sapiens, UniProt Q9HAZ1); details: Compound Concentration 10 µM
T3 construct: purchased KINOMEscan
Description: as §1

T2 sequence (Q96NX5 whole entry): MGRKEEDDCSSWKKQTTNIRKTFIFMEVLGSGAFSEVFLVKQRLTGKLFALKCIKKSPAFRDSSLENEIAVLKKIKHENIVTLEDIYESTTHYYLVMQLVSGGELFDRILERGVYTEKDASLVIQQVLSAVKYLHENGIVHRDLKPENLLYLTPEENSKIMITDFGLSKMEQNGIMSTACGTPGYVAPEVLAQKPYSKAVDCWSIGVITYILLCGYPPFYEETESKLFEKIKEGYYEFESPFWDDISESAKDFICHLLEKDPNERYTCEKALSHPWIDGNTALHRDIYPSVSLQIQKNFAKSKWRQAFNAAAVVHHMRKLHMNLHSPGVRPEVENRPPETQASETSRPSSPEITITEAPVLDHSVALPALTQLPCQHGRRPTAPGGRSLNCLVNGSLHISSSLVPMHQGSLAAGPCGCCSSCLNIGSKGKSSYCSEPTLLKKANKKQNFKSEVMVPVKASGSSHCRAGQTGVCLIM
T3 sequence (Q9HAZ1 whole entry): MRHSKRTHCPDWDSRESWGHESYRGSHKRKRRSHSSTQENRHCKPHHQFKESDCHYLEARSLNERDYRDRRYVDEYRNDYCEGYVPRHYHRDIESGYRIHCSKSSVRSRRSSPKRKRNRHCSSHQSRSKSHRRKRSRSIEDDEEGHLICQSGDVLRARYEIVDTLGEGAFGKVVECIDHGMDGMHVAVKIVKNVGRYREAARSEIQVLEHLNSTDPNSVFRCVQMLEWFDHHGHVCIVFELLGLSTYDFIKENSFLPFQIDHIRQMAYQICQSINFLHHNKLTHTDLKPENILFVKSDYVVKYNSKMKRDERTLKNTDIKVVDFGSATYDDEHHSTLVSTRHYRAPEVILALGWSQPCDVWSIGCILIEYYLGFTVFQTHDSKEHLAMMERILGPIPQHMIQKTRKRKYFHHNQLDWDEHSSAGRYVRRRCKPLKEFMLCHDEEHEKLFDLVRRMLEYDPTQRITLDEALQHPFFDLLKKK
T1 sequence (Q52WX2 whole entry): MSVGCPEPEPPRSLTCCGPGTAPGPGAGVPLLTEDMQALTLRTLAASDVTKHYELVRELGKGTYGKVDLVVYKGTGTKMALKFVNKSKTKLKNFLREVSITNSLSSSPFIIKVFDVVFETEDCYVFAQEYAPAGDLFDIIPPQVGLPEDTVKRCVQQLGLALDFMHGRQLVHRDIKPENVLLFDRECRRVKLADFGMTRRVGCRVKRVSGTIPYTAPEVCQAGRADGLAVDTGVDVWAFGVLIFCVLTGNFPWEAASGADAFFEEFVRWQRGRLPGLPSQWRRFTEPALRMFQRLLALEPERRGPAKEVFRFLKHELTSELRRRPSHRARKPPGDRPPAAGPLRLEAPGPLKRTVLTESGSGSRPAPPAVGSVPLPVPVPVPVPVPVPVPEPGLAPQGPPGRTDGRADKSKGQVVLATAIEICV

| Structure (SMILES) | % Ctrl, SBK1 (panel of 442 kinases [1]) | KINOMEscan: CAMK1G (panel of 442 kinases [2]) | KINOMEscan: CLK4 (panel of 442 kinases [3]) |
| --- | --- | --- | --- |
| COc1cc(C(=O)N2CCC(N3CCN(C)CC3)CC2)ccc1Nc1ncc2c(n1)N(C)c1ccccc1C(=O)N2C [15 (LRRK2-IN-1)] | 100 % Ctrl | 74 | 54 |
| COc1cc(C(=O)N2CCC(N3CCN(C)CC3)CC2)ccc1Nc1ncc2c(n1)N1CCc3cccc(c31)C(=O)N2C [Compound 24] | 80 % Ctrl | 56 | 11 |
| COc1cc(C(=O)N2CCC(N3CCN(C)CC3)CC2)ccc1Nc1ncc2c(n1)N(C1CCCC1)c1ccccc1C(=O)N2C [Compound 25, 11-cyclopentyl-2-((2-methoxy-4-(4-(4-methylpiperazin-1-yl)piperidine-1-carbonyl)phenyl)amino)-5-methyl-5H-benzo[e]pyrimido[5,4-b][1,4]diazepin-6(11H)-one] | 72 % Ctrl | 90 | 100 |
| CCOc1cc(C(=O)N2CCC(N3CCN(C)CC3)CC2)ccc1Nc1ncc2c(n1)N(C1CCCC1)c1ccccc1C(=O)N2C [Compound 26] | 99 % Ctrl | 95 | 100 |
